From ChEMBL document CHEMBL4020783, “Cytotoxic pterosins from Pteris multifida roots against HCT116 human colon cancer cells” (Bioorg Med Chem Lett, 2017)
The source made the active and inactive calls. No cut-off for these calls is given here.

Experiments:
HCT-116 [1] = experiment: Cytotoxicity against human HCT116 cells assessed as reduction in cell viability after 48 hrs by MTT assay; type: functional, cell-based; conditions: HCT-116, 48 h
HCT-116 [2] = experiment: Induction of apoptosis in human HCT116 cells assessed as increase in caspase-9 protein expression after 48 hrs by Western blot analysis; type: functional, cell-based
HCT-116 [3] = experiment: Induction of apoptosis in human HCT116 cells assessed as early apoptotic cells at 50 uM after 48 hrs by Annexin-V/propidium iodide staining-based flow cytometric analysis (reference value: 4.2%); type: functional
HCT-116 [4] = experiment: Induction of morphological changes in human HCT116 cells assessed as cell rounding and shrinkage; type: functional, cell-based
HCT-116 [5] = experiment: Induction of apoptosis in human HCT116 cells assessed as late apoptotic cells at 50 uM after 48 hrs by Annexin-V/propidium iodide staining-based flow cytometric analysis (reference value: 9.3%); type: functional
HCT-116 [6] = experiment: Induction of apoptosis in human HCT116 cells assessed as late apoptotic cells at 10 uM after 48 hrs by Annexin-V/propidium iodide staining-based flow cytometric analysis (reference value: 9.3%); type: functional
HCT-116 [7] = experiment: Induction of apoptosis in human HCT116 cells assessed as early apoptotic cells at 10 uM after 48 hrs by Annexin-V/propidium iodide staining-based flow cytometric analysis (reference value: 4.2%); type: functional
HCT-116 [8] = experiment: Induction of apoptosis in human HCT116 cells assessed as increase in cleaved caspase-9 protein expression after 48 hrs by Western blot analysis; type: functional, cell-based

Structure (SMILES) | IC50 (HCT-116 [1]) [µM] | also measured
Cc1cc2c(c(C)c1CCO)C(=O)[C@@H](C)[C@@H]2O | 72.9 | –
Cc1cc2c(c(C)c1CCO)C(=O)[C@@H](C)[C@@H]2O[C@@H]1O[C@H](CO)[C@@H](O)[C@H](O)[C@H]1O | 32.9 | –
Cc1cc2c(c(C)c1CCO)C(=O)[C@](C)(CO)[C@@H]2O | 106 | –
Cc1cc2c(c(C)c1CCO)C(=O)[C@H](C)[C@@H]2O | 253 | –
CO[C@@H]1c2cc(C)c(CCO)c(C)c2C(=O)[C@H]1C | 79.4 | –
O=c1[nH]cc(F)c(=O)[nH]1 [FLUOROURACIL] | 41.9 | –
Cc1cc2c(c(C)c1CCO)C(=O)C(C)(C)[C@@H]2O | 184 | –
Cc1cc2c(c(CO)c1CCO)C(=O)C(C)(C)[C@@H]2O | 120 | –
Cc1cc2c(c(C)c1CCO)C(=O)[C@@H](C)[C@@H]2O[C@@H]1O[C@H](CO)[C@@H](OC(=O)/C=C/c2ccc(O)c(O)c2)[C@H](O)[C@H]1O | 8 | Activity (HCT-116 [2]): Dose-dependent effect; Activity (HCT-116 [3]): 17.1%; Activity (HCT-116 [4]): Active; Activity (HCT-116 [5]): 31.6%; Activity (HCT-116 [6]): 20.9%; Activity (HCT-116 [7]): 6.2%; Activity (HCT-116 [8]): Dose-dependent effect
Cc1cc2c(c(C)c1CCO)C(=O)[C@@H](C)[C@@H]2O[C@@H]1O[C@H](COC(=O)/C=C/c2ccc(O)cc2)[C@@H](O)[C@H](O)[C@H]1O | 17.2 | –
Cc1cc2c(c(C)c1CCO[C@@H]1O[C@H](CO)[C@@H](O)[C@H](O)[C@H]1O)C(=O)[C@H](C)C2 | 80.7 | –
Cc1cc2c(c(CO)c1CCO[C@@H]1O[C@H](CO)[C@@H](O)[C@H](O)[C@H]1O)C(=O)C(C)(C)[C@@H]2O | 81.2 | –
Cc1cc2c(c(C)c1CCO)C(=O)[C@H](C)C2 | 50.1 | –
